Where two headings read alike, the source gives them in different places.
Key:
Type in all cases: in vivo
[1] = system: Amaranthus rudis (AMATA), tall water hemp; assay: Postemergence herbicide evaluation, growth of Amaranthus rudis (AMATA); conditions: Amaranthus tuberculatus, post-emergence
[2] = system: Ambrosia artemisiifolia (AMBEL), common ragweed; assay: Postemergence herbicide evaluation, growth of Ambrosia artemisiifolia (AMBEL); conditions: Ambrosia artemisiifolia, post-emergence
[3] = system: Abutilon theophrasti (ABUTH), velvetleaf; assay: Postemergence herbicide evaluation, growth of Abutilon theophrasti (ABUTH); conditions: Abutilon theophrasti, post-emergence
[4] = system: Chenopodium album (CHEAL), common lambsquarters; assay: Postemergence herbicide evaluation, growth of Chenopodium album (CHEAL); conditions: Chenopodium album, post-emergence
[5] = system: glyphosate resistant Conyza canadensis (L.) (ERICA), horseweed; assay: Postemergence herbicide evaluation, growth of Conyza canadensis (ERICA); conditions: Erigeron canadensis, post-emergence, read-out: Ave. ERICA, percent reduction in plant size relative to the untreated control; for pest or weed control at 280 g/ha: 280 g ae/ha; for pest or weed control at 560 g/ha: 560 g ae/ha
[6] = system: weeds ABUTH, AMATA, AMBEL, CHEAL, ERICA; assay: Postemergence herbicide evaluation, overall average % weed control (ABUTH, AMATA, AMBEL, CHEAL, ERICA); conditions: post-emergence, read-out: Overall Ave % Weed Control; for pest or weed control at 280 g/ha: 280 g ae/ha; for pest or weed control at 560 g/ha: 560 g ae/ha
[7] = system: weeds ABUTH, AMATA, AMBEL, CHEAL, ERICA; assay: Postemergence herbicide evaluation, overall average % weed control across ABUTH, AMATA, AMBEL, CHEAL and ERICA; conditions: post-emergence, read-out: Overall Ave % Weed Control

O=C(COc1ccc(Cl)cc1Cl)Oc1cccnn1 [Compound E2]
pest or weed control at 280 g/ha ([1]; 168 h, 280 g ae/ha, 7 DAA, read-out: Ave. AMATA, percent reduction in plant size relative to the untreated control): 78% | pest or weed control at 560 g/ha ([1]; 168 h, 560 g ae/ha, 7 DAA, read-out: Ave. AMATA, percent reduction in plant size relative to the untreated control): 73% | pest or weed control at 280 g/ha ([1]; 336 h, 280 g ae/ha, 14 DAA, read-out: Ave. AMATA, percent reduction in plant size relative to the untreated control): 80% | pest or weed control at 560 g/ha ([1]; 336 h, 560 g ae/ha, 14 DAA, read-out: Ave. AMATA, percent reduction in plant size relative to the untreated control): 83% | pest or weed control at 280 g/ha ([1]; 504 h, 280 g ae/ha, 21 DAA, read-out: Ave. AMATA, percent reduction in plant size relative to the untreated control): 83% | pest or weed control at 560 g/ha ([1]; 504 h, 560 g ae/ha, 21 DAA, read-out: Ave. AMATA, percent reduction in plant size relative to the untreated control): 84% | pest or weed control at 280 g/ha ([2]; 168 h, 280 g ae/ha, 7 DAA, read-out: AVE. AMBEL, percent reduction in plant size relative to the untreated control): 63% | pest or weed control at 560 g/ha ([2]; 168 h, 560 g ae/ha, 7 DAA, read-out: AVE. AMBEL, percent reduction in plant size relative to the untreated control): 63% | pest or weed control at 280 g/ha ([2]; 336 h, 280 g ae/ha, 14 DAA, read-out: AVE. AMBEL, percent reduction in plant size relative to the untreated control): 90% | pest or weed control at 560 g/ha ([2]; 336 h, 560 g ae/ha, 14 DAA, read-out: AVE. AMBEL, percent reduction in plant size relative to the untreated control): 95% | pest or weed control at 280 g/ha ([2]; 504 h, 280 g ae/ha, 21 DAA, read-out: AVE. AMBEL, percent reduction in plant size relative to the untreated control): 94% | pest or weed control at 560 g/ha ([2]; 504 h, 560 g ae/ha, 21 DAA, read-out: AVE. AMBEL, percent reduction in plant size relative to the untreated control): 99% | pest or weed control at 280 g/ha ([3]; 168 h, 280 g ae/ha, 7 DAA, read-out: AVE. ABUTH, percent reduction in plant size relative to the untreated control): 85% | pest or weed control at 560 g/ha ([3]; 168 h, 560 g ae/ha, 7 DAA, read-out: AVE. ABUTH, percent reduction in plant size relative to the untreated control): 85% | pest or weed control at 280 g/ha ([3]; 336 h, 280 g ae/ha, 14 DAA, read-out: AVE. ABUTH, percent reduction in plant size relative to the untreated control): 93% | pest or weed control at 560 g/ha ([3]; 336 h, 560 g ae/ha, 14 DAA, read-out: AVE. ABUTH, percent reduction in plant size relative to the untreated control): 93% | pest or weed control at 280 g/ha ([3]; 504 h, 280 g ae/ha, 21 DAA, read-out: AVE. ABUTH, percent reduction in plant size relative to the untreated control): 98% | pest or weed control at 560 g/ha ([3]; 504 h, 560 g ae/ha, 21 DAA, read-out: AVE. ABUTH, percent reduction in plant size relative to the untreated control): 98% | pest or weed control at 280 g/ha ([4]; 168 h, 280 g ae/ha, 7 DAA, read-out: Ave. CHEAL, percent reduction in plant size relative to the untreated control): 65% | pest or weed control at 560 g/ha ([4]; 168 h, 560 g ae/ha, 7 DAA, read-out: Ave. CHEAL, percent reduction in plant size relative to the untreated control): 75% | pest or weed control at 280 g/ha ([4]; 336 h, 280 g ae/ha, 14 DAA, read-out: Ave. CHEAL, percent reduction in plant size relative to the untreated control): 63% | pest or weed control at 560 g/ha ([4]; 336 h, 560 g ae/ha, 14 DAA, read-out: Ave. CHEAL, percent reduction in plant size relative to the untreated control): 88% | pest or weed control at 280 g/ha ([4]; 504 h, 280 g ae/ha, 21 DAA, read-out: Ave. CHEAL, percent reduction in plant size relative to the untreated control): 63% | pest or weed control at 560 g/ha ([4]; 504 h, 560 g ae/ha, 21 DAA, read-out: Ave. CHEAL, percent reduction in plant size relative to the untreated control): 94% | pest or weed control at 280 g/ha ([5]; 168 h, 7 DAA): 70% | pest or weed control at 560 g/ha ([5]; 168 h, 7 DAA): 73% | pest or weed control at 280 g/ha ([5]; 336 h, 14 DAA): 88% | pest or weed control at 560 g/ha ([5]; 336 h, 14 DAA): 85% | pest or weed control at 280 g/ha ([5]; 504 h, 21 DAA): 94% | pest or weed control at 560 g/ha ([5]; 504 h, 21 DAA): 90% | pest or weed control at 280 g/ha ([6]; 168 h, 7 DAA): 72% | pest or weed control at 560 g/ha ([6]; 168 h, 7 DAA): 74% | pest or weed control at 280 g/ha ([6]; 336 h, 14 DAA): 83% | pest or weed control at 560 g/ha ([6]; 336 h, 14 DAA): 89% | pest or weed control at 280 g/ha ([6]; 504 h, 21 DAA): 86% | pest or weed control at 560 g/ha ([6]; 504 h, 21 DAA): 93%

O=C(COc1ccc(Cl)cc1Cl)OCCOCCOCCOCCOC(=O)COc1ccc(Cl)cc1Cl [Compound B14]
pest or weed control at 280 g/ha ([1]; 168 h, read-out: Ave. AMATA): 72.5% | pest or weed control at 560 g/ha ([1]; 168 h, read-out: Ave. AMATA): 90% | pest or weed control at 280 g/ha ([1]; 336 h, read-out: Ave. AMATA): 90% | pest or weed control at 560 g/ha ([1]; 336 h, read-out: Ave. AMATA): 96% | pest or weed control at 280 g/ha ([1]; 504 h, read-out: Ave. AMATA): 70% | pest or weed control at 560 g/ha ([1]; 504 h, read-out: Ave. AMATA): 92.5% | pest or weed control at 280 g/ha ([2]; 168 h, read-out: AVE. AMBEL): 82.5% | pest or weed control at 560 g/ha ([2]; 168 h, read-out: AVE. AMBEL): 87.5% | pest or weed control at 280 g/ha ([2]; 336 h, read-out: AVE. AMBEL): 75% | pest or weed control at 560 g/ha ([2]; 336 h, read-out: AVE. AMBEL): 89.5% | pest or weed control at 280 g/ha ([2]; 504 h, read-out: AVE. AMBEL): 100% | pest or weed control at 560 g/ha ([2]; 504 h, read-out: AVE. AMBEL): 100% | pest or weed control at 280 g/ha ([3]; 168 h, read-out: AVE. ABUTH): 60% | pest or weed control at 560 g/ha ([3]; 168 h, read-out: AVE. ABUTH): 70% | pest or weed control at 280 g/ha ([3]; 336 h, read-out: AVE. ABUTH): 77.5% | pest or weed control at 560 g/ha ([3]; 336 h, read-out: AVE. ABUTH): 87.5% | pest or weed control at 280 g/ha ([3]; 504 h, read-out: AVE. ABUTH): 92% | pest or weed control at 560 g/ha ([3]; 504 h, read-out: AVE. ABUTH): 97.5% | pest or weed control at 280 g/ha ([4]; 168 h, read-out: Ave. CHEAL): 75% | pest or weed control at 560 g/ha ([4]; 168 h, read-out: Ave. CHEAL): 77.5% | pest or weed control at 280 g/ha ([4]; 336 h, read-out: Ave. CHEAL): 94% | pest or weed control at 560 g/ha ([4]; 336 h, read-out: Ave. CHEAL): 98% | pest or weed control at 280 g/ha ([4]; 504 h, read-out: Ave. CHEAL): 90% | pest or weed control at 560 g/ha ([4]; 504 h, read-out: Ave. CHEAL): 99% | pest or weed control at 280 g/ha ([7]; 168 h): 75% | pest or weed control at 560 g/ha ([7]; 168 h): 82.5% | pest or weed control at 280 g/ha ([7]; 336 h): 87.3% | pest or weed control at 560 g/ha ([7]; 336 h): 94.2% | pest or weed control at 280 g/ha ([7]; 504 h): 90.2% | pest or weed control at 560 g/ha ([7]; 504 h): 97.6%

From patent US20260042731A1, “(2,4-DICHLOROPHENOXY)ACETIC ACID ANALOGS” (CORTEVA AGRISCIENCE LLC, priority 2022, published 2026)
